Columns and labels:
[1] = Cytotoxicity in human HepG2.215 cells assessed as reduction in cell viability after 5 days by CCK8 assay; type: cell-based, HepG2 2.2.15; conditions: HepG2.2.15 cells
[2] = test system: Hepatitis B virus; assay: Antiviral activity against lamivudine-resistant wild type hepatitis B virus infected in human Huh7 cells assessed as reduction in intracellular DNA levels measured on day 7 by real-time PCR analysis; type: functional, organism-based; conditions: Huh-7, 168 h
[3] = test system: Hepatitis B virus; assay: Antiviral activity against lamivudine-resistant hepatitis B virus harboring reverse transcriptase M204I mutant infected in human Huh7 cells assessed as reduction in intracellular DNA levels measured on day 7 by real-time PCR analysis; type: functional, organism-based; conditions: Huh-7, 168 h
[4] = test system: Hepatitis B virus; assay: Antiviral activity against lamivudine-resistant hepatitis B virus harboring reverse transcriptase M204I/V173L double mutant infected in human Huh7 cells assessed as reduction in intracellular DNA levels measured on day 7 by real-time PCR analysis; type: functional, organism-based; conditions: Huh-7, 168 h
[5] = test system: Hepatitis B virus; assay: Antiviral activity against lamivudine-resistant wild type hepatitis B virus infected in human Huh7 cells assessed as reduction in secreted DNA levels measured on day 7 by real-time PCR analysis; type: functional, organism-based; conditions: Huh-7, 168 h
[6] = test system: Hepatitis B virus; assay: Antiviral activity against lamivudine-resistant hepatitis B virus harboring reverse transcriptase M204I mutant infected in human Huh7 cells assessed as reduction in secreted DNA levels measured on day 7 by real-time PCR analysis; type: functional, organism-based; conditions: Huh-7, 168 h
[7] = test system: Hepatitis B virus; assay: Antiviral activity against lamivudine-resistant hepatitis B virus harboring reverse transcriptase M204I/V173L double mutant infected in human Huh7 cells assessed as reduction in secreted DNA levels measured on day 7 by real-time PCR analysis; type: functional, organism-based; conditions: Huh-7, 168 h
[8] = test system: Hepatitis B virus; assay: Antiviral activity against hepatitis B virus infected in human HepG2.215 cells assessed as reduction in viral DNA replication measured on day 7 by real time PCR analysis; type: functional, organism-based; conditions: HepG2.2.15, 168 h

## Nc1ccn([C@@H]2CS[C@H](CO)O2)c(=O)n1 [LAMIVUDINE]
[1]
  CC50 at 120 h: 1020 µM
[2]
  EC50: 0.237 µM
[3]
  EC50: > 20 µM
[4]
  EC50: > 20 µM
[5]
  EC50: 0.055 µM
[6]
  EC50: > 20 µM
[7]
  EC50: > 20 µM
[8]
  EC50: 0.1 µM
  EC90: 2 µM

Source: ChEMBL document CHEMBL4177524, “Discovery of hepatitis B virus capsid assembly inhibitors leading to a heteroaryldihydropyrimidine based clinical candidate (GLS4)” (Bioorg Med Chem, 2017)
